Source: patent publication EP1172104A1, “SEAM SOFT CAPSULE PREPARATIONS CONTAINING DIHYDROBENZOFURAN DERIVATIVE” (CHUGAI SEIYAKU KABUSHIKI KAISHA, priority 1999, dated 2000)

Key:
Type in all cases: physicochemical
[1] = Stability of BO-653 in various fat and oils (influence of oxygen, accelerated test at 80°C, HPLC); settings: 17 hours
Method: The influence of oxygen on the stability of BO-653 in various fat and oils was tested. BO-653 was dissolved in soybean oil, olive oil, MCT, tricaprylin, and linoleic acid separately to give a concentration of 50% by weight. 70 mg of each of the solutions was placed into individual 5 cc glass bottles. Separately, 35 mg of BO-653 was directly placed into a 5 cc glass bottle. The samples were prepared in duplicate. One set of samples were subjected to an argon replacement of the headspace of the bottles and then tightly sealed, while the other set of samples were sealed without argon replacement. Accelerated test at 80°C was conducted using all of the samples.

[2] = Stability of seamed soft capsule formulation of BO-653 (1): Formulations 1 and 2, accelerated tests, HPLC; settings: 100% oxygen atmosphere
Method: Formulations 1 and 2 obtained in Example 1 were tested for their stability under the conditions below: Condition 1: • Formulation 1 was left at 40°C in a 100% oxygen atmosphere. Condition 2: • Formulation 1 was left at 50°C in a 100% oxygen atmosphere. Condition 3: • Formulation 2 was left at 50°C in a 100% oxygen atmosphere.
As a control, BO-653 was dissolved in soybean oil to give a concentration of 10% by weight and the solution was left at 40°C in a 100% oxygen atmosphere in the form that the solution was not filled into a soft capsule.

[3] = Stability of seamed soft capsule formulations of BO-653 (2): Formulation 3, shell thickness and glycerin content, HPLC; settings: Formulation 3 (50% w/w in soybean oil)
Method: Formulation 3 obtained in Example 1 was stored at 50°C in a 100% oxygen atmosphere.

[4] = Stability of seamed soft capsule formulations of BO-653 (3): Formulation 4, various storage conditions, HPLC

Substance: 4,6-di-tert-butyl-2,2-di-n-pentyl-5-hydroxy-2,3-dihydrobenzofuran [BO-653]
- residual ratio of BO-653 ([1]; 50% by weight in soybean oil, without argon replacement (presence of oxygen)): Relatively high stability
- residual ratio of BO-653 ([1]; BO-653 alone or 50% by weight in soybean oil, olive oil, MCT, tricaprylin or linoleic acid, with argon replacement (absence of oxygen)): little loss
- Residual ratio (%) of BO-653 ([2]; Condition 1: Formulation 1 (10% w/w in soybean oil, seamed soft capsule), 40°C, 1 month): 100.7%
- Residual ratio (%) of BO-653 ([2]; Condition 2: Formulation 1 (10% w/w in soybean oil, seamed soft capsule), 50°C, 2 weeks): 99.6%
- Residual ratio (%) of BO-653 ([2]; Condition 3: Formulation 2 (10% w/w in MCT, seamed soft capsule), 50°C, 3 weeks): 92.8%
- Residual ratio (%) of BO-653 ([2]; Control: 10% by weight solution in soybean oil not filled into a soft capsule, 40°C, 1 month): < 0.2%
- Content (%) of BO-653 after left at 50°C in a 100% oxygen atmosphere for 1 month ([3]; Capsule No. 1: thickness 26 x 10^-3 inch (66 x 10^-2 mm), glycerin content 30.0): 99.4%
- Content (%) of BO-653 after left at 50°C in a 100% oxygen atmosphere for 1 month ([3]; Capsule No. 2: thickness 30 x 10^-3 inch (76 x 10^-2 mm), glycerin content 30.0): 99.9%
- Content (%) of BO-653 after left at 50°C in a 100% oxygen atmosphere for 1 month ([3]; Capsule No. 3: thickness 34 x 10^-3 inch (86 x 10^-2 mm), glycerin content 30.0): 99.7%
- Content (%) of BO-653 after left at 50°C in a 100% oxygen atmosphere for 1 month ([3]; Capsule No. 4: thickness 26 x 10^-3 inch (66 x 10^-2 mm), glycerin content 44.2): 98.8%
- Content (%) of BO-653 after left at 50°C in a 100% oxygen atmosphere for 1 month ([3]; Capsule No. 5: thickness 30 x 10^-3 inch (76 x 10^-2 mm), glycerin content 44.2): 100.0%
- Content (%) of BO-653 after left at 50°C in a 100% oxygen atmosphere for 1 month ([3]; Capsule No. 6: thickness 34 x 10^-3 inch (86 x 10^-2 mm), glycerin content 44.2): 100.8%
- Content (%) of BO-653 after left at 50°C in a 100% oxygen atmosphere for 1 month ([3]; Capsule No. 8: thickness 30 x 10^-3 inch (76 x 10^-2 mm), glycerin content 56.4): 97.0%
- Content (%) of BO-653 after left at 50°C in a 100% oxygen atmosphere for 1 month ([3]; Capsule No. 9: thickness 34 x 10^-3 inch (86 x 10^-2 mm), glycerin content 56.4): 98.8%
- Residual ratio (%) of BO-653 ([4]; Formulation 4, BO-653 content in filling solution 4% by weight, 40°C, RH75% - 1M): 99.0%
- Residual ratio (%) of BO-653 ([4]; Formulation 4, BO-653 content in filling solution 4% by weight, 50°C, 100% oxygen atmosphere-1M): 100.0%
- Residual ratio (%) of BO-653 ([4]; Formulation 4, BO-653 content in filling solution 4% by weight, irradiation with 1,200,000 lux.hrs white light): 100.0%
- Residual ratio (%) of BO-653 ([4]; Formulation 4, BO-653 content in filling solution 4% by weight, irradiation with 1,200,000 lux.hrs white light followed by 400 W.hrs/m^2 UV rays): 98.0%
- Residual ratio (%) of BO-653 ([4]; Formulation 4, BO-653 content in filling solution 40% by weight, 40°C, RH75% - 1M): 100.1%
- Residual ratio (%) of BO-653 ([4]; Formulation 4, BO-653 content in filling solution 40% by weight, 50°C, 100% oxygen atmosphere-1M): 100.7%
- Residual ratio (%) of BO-653 ([4]; Formulation 4, BO-653 content in filling solution 40% by weight, irradiation with 1,200,000 lux.hrs white light): 100.0%
- Residual ratio (%) of BO-653 ([4]; Formulation 4, BO-653 content in filling solution 40% by weight, irradiation with 1,200,000 lux.hrs white light followed by 400 W.hrs/m^2 UV rays): 99.7%
- Residual ratio (%) of BO-653 ([4]; Formulation 4, BO-653 content in filling solution 80% by weight, 40°C, RH75% - 1M): 99.8%
- Residual ratio (%) of BO-653 ([4]; Formulation 4, BO-653 content in filling solution 80% by weight, 50°C, 100% oxygen atmosphere-1M): 101.0%
- Residual ratio (%) of BO-653 ([4]; Formulation 4, BO-653 content in filling solution 80% by weight, irradiation with 1,200,000 lux.hrs white light): 99.5%
- Residual ratio (%) of BO-653 ([4]; Formulation 4, BO-653 content in filling solution 80% by weight, irradiation with 1,200,000 lux.hrs white light followed by 400 W.hrs/m^2 UV rays): 99.8%
